Data reported in USRE39591E1, “6-O-substituted ketolides having antibacterial activity” (Abbott Laboratories, priority 1996, dated 2007).
Converted amounts (≈) assume the structure as drawn.

Test system: up to 32 different microorganisms
Experiment: in vitro antibacterial activity (MIC), agar dilution on Brain Heart Infusion (BHI) agar with Steers replicator
Type: cell-based
Details: unit assumed
Method in brief: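 MIC read visually: lowest drug level with no growth, slight haze or sparsely isolated colonies on the inoculum spot relative to drug-free control. Serial aqueous compound dilutions in BHI agar, 1:100 inoculum (1:10 slow strains), 20 to 24 hours at 35°-37° C.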

[1] = Candida albicans CCH 442 (code TT)
[2] = Enterococcus faecism ATCC 8043 (code II)
[3] = Escherichia coli DC-2 (code SS)
[4] = Escherichia coli JUHL (code QQ)
[5] = Micrococcus luteus ATCC 4698 (code PP)
[6] = Micrococcus luteus ATCC 9341 (code OO)
[7] = Mycobacterium smegmatis ATCC 114 (code UU)
[8] = Nocardia Asteroides ATCC9970 (code VV)
[9] = Staphylococcus aureus 1775 (code GG)
[10] = Staphylococcus aureus A5177 (code BB)
[11] = Staphylococcus aureus A-5278 (code CC)
[12] = Staphylococcus aureus ATCC 6538P (code AA)
[13] = Staphylococcus aureus CMX 553 (code FF)
[14] = Staphylococcus aureus CMX 642A (code DD)
[15] = Staphylococcus aureus NCTC10649M (code EE)
[16] = Staphylococcus epidermidis 3519 (code HH)
[17] = Streptococcus agalactiae CMX 508 (code KK)
[18] = Streptococcus bovis A-5169 (code JJ)
[19] = Streptococcus pyogenes 930 (code MM)
[20] = Streptococcus pyogenes EES61 (code LL)
[21] = Streptococcus pyogenes PIU 2548 (code NN)

CC[C@H]1OC(=O)[C@H](C)C(=O)[C@H](C)[C@@H](O[C@@H]2O[C@H](C)C[C@H](N(C)C)[C@H]2O)[C@@](C)(OCC#CBr)C[C@@H](C)C(=O)[C@H](C)[C@H]2NC(=O)O[C@@]21C [Example 258, Compound of Formula (IX): L is CO, T is NH, R is —CH2—C≡C—Br]
MIC (organism code AA): 0.78 mg/L
MIC (organism code BB): 0.39 mg/L
MIC (organism code CC): > 100 mg/L
MIC (organism code DD): 0.78 mg/L
MIC (organism code EE): 0.39 mg/L
MIC (organism code FF): 0.78 mg/L
MIC (organism code GG): > 100 mg/L
MIC (organism code HH): 0.78 mg/L
MIC (organism code II): 0.39 mg/L
MIC (organism code JJ): 0.05 mg/L
MIC (organism code KK): 0.1 mg/L
MIC (organism code LL): 0.05 mg/L
MIC (organism code MM): > 100 mg/L
MIC (organism code NN): 0.2 mg/L
MIC (organism code OO): 0.1 mg/L
MIC (organism code PP): 0.39 mg/L
MIC (organism code QQ): > 100 mg/L
MIC (organism code RR): 0.78 mg/L
MIC (organism code SS): > 100 mg/L
MIC (organism code TT): > 100 mg/L
MIC (organism code UU): 12.5 mg/L
MIC (organism code VV): 0.39 mg/L
MIC (organism code WW): 32 mg/L
MIC (organism code XX): 0.03 mg/L
MIC (organism code YY): 0.03 mg/L
MIC (organism code ZZ): > 128 mg/L
MIC (organism code ZZA): 0.125 mg/L

CC[C@H]1OC(=O)[C@H](C)C(=O)[C@H](C)[C@@H](O[C@@H]2O[C@H](C)C[C@H](N(C)C)[C@H]2O)[C@@](C)(OCC#Cc2ccc(C(=O)Nc3ccccn3)o2)C[C@@H](C)C(=O)[C@H](C)[C@H]2NC(=O)O[C@@]21C [Example 256]
MIC (organism code AA): 0.05 mg/L (≈ 0.0608 µM)
MIC (organism code BB): 0.05 mg/L (≈ 0.0608 µM)
MIC (organism code CC): > 100 mg/L
MIC (organism code DD): 0.05 mg/L (≈ 0.0608 µM)
MIC (organism code EE): 0.05 mg/L (≈ 0.0608 µM)
MIC (organism code FF): 0.02 mg/L (≈ 0.0243 µM)
MIC (organism code GG): > 100 mg/L
MIC (organism code HH): 0.1 mg/L (≈ 0.122 µM)
MIC (organism code II): 0.02 mg/L (≈ 0.0243 µM)
MIC (organism code JJ): 0.01 mg/L (≈ 0.0122 µM)
MIC (organism code KK): 0.02 mg/L (≈ 0.0243 µM)
MIC (organism code LL): 0.01 mg/L (≈ 0.0122 µM)
MIC (organism code MM): 25 mg/L (≈ 30.4 µM)
MIC (organism code NN): 0.2 mg/L (≈ 0.243 µM)
MIC (organism code OO): 0.01 mg/L (≈ 0.0122 µM)
MIC (organism code PP): 0.1 mg/L (≈ 0.122 µM)
MIC (organism code QQ): 100 mg/L (≈ 122 µM)
MIC (organism code RR): 0.2 mg/L (≈ 0.243 µM)
MIC (organism code SS): > 100 mg/L
MIC (organism code TT): > 100 mg/L
MIC (organism code UU): 1.56 mg/L (≈ 1.9 µM)
MIC (organism code VV): 0.05 mg/L (≈ 0.0608 µM)
MIC (organism code WW): 2 mg/L (≈ 2.43 µM)
MIC (organism code XX): 0.03 mg/L (≈ 0.0365 µM)
MIC (organism code YY): 0.03 mg/L (≈ 0.0365 µM)
MIC (organism code ZZ): 16 mg/L (≈ 19.4 µM)
MIC (organism code ZZA): 0.25 mg/L (≈ 0.304 µM)

C=CCOC1(C)CC(C)C(=NO)C(C)C(O)C(C)(O)C(CC)OC(=O)C(C)C(=O)C(C)C1OC1OC(C)CC(N(C)C)C1O (centres unmarked) [Example 2, Compound of Formula (VIII): X is NOH, R is allyl]
MIC [1]: > 100 mg/L
MIC [2]: 6.2 mg/L
MIC [3]: > 100 mg/L
MIC [4]: > 100 mg/L
MIC (Escherichia coli SS (code RR)): 3.1 mg/L
MIC [5]: 3.1 mg/L
MIC [6]: 1.56 mg/L
MIC [7]: 25 mg/L
MIC [8]: 0.2 mg/L
MIC [9]: > 100 mg/L
MIC [10]: 3.1 mg/L
MIC [11]: > 100 mg/L
MIC [12]: 3.1 mg/L
MIC [13]: 3.1 mg/L
MIC [14]: 3.1 mg/L
MIC [15]: 1.56 mg/L
MIC [16]: 6.2 mg/L
MIC [17]: 1.56 mg/L
MIC [18]: 3.1 mg/L
MIC [19]: > 100 mg/L
MIC [20]: 3.1 mg/L
MIC [21]: 3.1 mg/L

CCC1OC(=O)C(C)C(=O)C(C)C(OC2OC(C)CC(N(C)C)C2O)C(C)(OCC=Cc2ccc3ncc(-c4cccs4)cc3c2)CC(C)C(=O)C(C)C2NC(=O)OC12C (centres unmarked) [Example 275, Compound of Formula (IX): L is CO, T is NH2, R is —CH2CH═CH-(3-(2-thiphenyl)-6-quinolyl)]
MIC (organism code AA): 0.2 mg/L
MIC (organism code BB): 0.2 mg/L
MIC (organism code CC): > 100 mg/L
MIC (organism code DD): 0.2 mg/L
MIC (organism code EE): 0.2 mg/L
MIC (organism code FF): 0.2 mg/L
MIC (organism code GG): > 100 mg/L
MIC (organism code HH): 0.2 mg/L
MIC (organism code II): 0.1 mg/L
MIC (organism code JJ): 0.01 mg/L
MIC (organism code KK): 0.05 mg/L
MIC (organism code LL): 0.02 mg/L
MIC (organism code MM): 12.5 mg/L
MIC (organism code NN): 0.2 mg/L
MIC (organism code OO): 0.02 mg/L
MIC (organism code PP): 0.2 mg/L
MIC (organism code QQ): > 100 mg/L
MIC (organism code RR): 0.78 mg/L
MIC (organism code SS): > 100 mg/L
MIC (organism code TT): > 100 mg/L
MIC (organism code UU): 0.39 mg/L
MIC (organism code VV): 0.2 mg/L
MIC (organism code WW): 8 mg/L
MIC (organism code XX): 0.03 mg/L
MIC (organism code YY): 0.03 mg/L
MIC (organism code ZZ): 4 mg/L
MIC (organism code ZZA): 0.5 mg/L

CC[C@H]1OC(=O)[C@H](C)C(=O)[C@H](C)[C@@H](O[C@@H]2O[C@H](C)C[C@H](N(C)C)[C@H]2O)[C@@](C)(OCCNOCc2ccccc2)C[C@@H](C)C(=O)[C@H](C)[C@H]2NC(=O)O[C@@]21C [Example 237, Compound of Formula (IX): L is CO, T is NH, R is —CH2CH2NHOCH2(phenyl)]
MIC (organism code AA): 0.39 mg/L
MIC (organism code BB): 0.39 mg/L
MIC (organism code CC): > 100 mg/L
MIC (organism code DD): 0.39 mg/L
MIC (organism code EE): 0.39 mg/L
MIC (organism code FF): 0.39 mg/L
MIC (organism code GG): > 100 mg/L
MIC (organism code HH): 0.39 mg/L
MIC (organism code II): 0.1 mg/L
MIC (organism code JJ): 0.05 mg/L
MIC (organism code KK): 0.05 mg/L
MIC (organism code LL): 0.05 mg/L
MIC (organism code MM): > 100 mg/L
MIC (organism code NN): 0.2 mg/L
MIC (organism code OO): 0.05 mg/L
MIC (organism code PP): 0.39 mg/L
MIC (organism code QQ): > 100 mg/L
MIC (organism code RR): 0.39 mg/L
MIC (organism code SS): > 100 mg/L
MIC (organism code TT): > 100 mg/L
MIC (organism code UU): 0.78 mg/L
MIC (organism code VV): 0.39 mg/L
MIC (organism code WW): 16 mg/L
MIC (organism code XX): 0.03 mg/L
MIC (organism code YY): 0.03 mg/L
MIC (organism code ZZ): > 128 mg/L
MIC (organism code ZZA): 0.05 mg/L

CC[C@H]1OC(=O)[C@H](C)C(=O)[C@H](C)[C@@H](O[C@@H]2O[C@H](C)C[C@H](N(C)C)[C@H]2O)[C@@](C)(OCC=NOCc2ccccc2)C[C@@H](C)C(=O)[C@H](C)[C@H]2NC(=O)O[C@@]21C [Example 229, Compound of Formula (IX): L is CO, T is NH, R is —CH2CH═NOCH2(phenyl)]
MIC (organism code AA): 0.2 mg/L
MIC (organism code BB): 0.2 mg/L
MIC (organism code CC): > 100 mg/L
MIC (organism code DD): 0.2 mg/L
MIC (organism code EE): 0.2 mg/L
MIC (organism code FF): 0.2 mg/L
MIC (organism code GG): > 100 mg/L
MIC (organism code HH): 0.2 mg/L
MIC (organism code II): 0.05 mg/L
MIC (organism code JJ): ≤ 0.005 mg/L
MIC (organism code KK): 0.02 mg/L
MIC (organism code LL): 0.01 mg/L
MIC (organism code MM): 50 mg/L
MIC (organism code NN): 0.2 mg/L
MIC (organism code OO): 0.02 mg/L
MIC (organism code PP): 0.05 mg/L
MIC (organism code QQ): > 100 mg/L
MIC (organism code RR): 0.39 mg/L
MIC (organism code SS): > 100 mg/L
MIC (organism code TT): > 100 mg/L
MIC (organism code UU): 1.56 mg/L
MIC (organism code VV): 0.2 mg/L
MIC (organism code WW): 2 mg/L
MIC (organism code XX): ≤ 0.004 mg/L
MIC (organism code YY): ≤ 0.004 mg/L
MIC (organism code ZZ): > 128 mg/L
MIC (organism code ZZA): 0.125 mg/L

CCC1OC(=O)C(C)C(=O)C(C)C(OC2OC(C)CC(N(C)C)C2OC(C)=O)C(C)(OCC=Cc2cnc3ccccc3c2)CC(C)C(=O)C(C)C2NC(=O)OC12C (centres unmarked) [Example 198, Compound of Formula (III): L is CO, T is NH, R^c is acetyl; R is —CH2CH═CH-(3-quinolyl)]
MIC [1]: > 100 mg/L
MIC [2]: 0.02 mg/L
MIC [3]: 50 mg/L
MIC [4]: 50 mg/L
MIC (Escherichia coli SS (code RR)): 0.1 mg/L
MIC [5]: 0.1 mg/L
MIC [6]: ≤ 0.005 mg/L
MIC [7]: 0.39 mg/L
MIC [8]: 0.02 mg/L
MIC [9]: > 100 mg/L
MIC [10]: 0.05 mg/L
MIC [11]: > 100 mg/L
MIC [12]: 0.05 mg/L
MIC [13]: 0.02 mg/L
MIC [14]: 0.05 mg/L
MIC [15]: 0.05 mg/L
MIC [16]: 0.1 mg/L
MIC [17]: ≤ 0.005 mg/L
MIC [18]: ≤ 0.005 mg/L
MIC [19]: 0.39 mg/L
MIC [20]: ≤ 0.005 mg/L
MIC [21]: 0.1 mg/L
